Laboratory results as given in patent publication US9428483B2, “Prodrug of fluorine-containing amino acid” (TAISHO PHARMACEUTICAL CO., LTD., priority 2012, dated 2016).

Legend:
[1] = Test 1: Solution Stability Test; format: physicochemical; settings: 37° C., one hour, about 50 μg/mL; for Compound's percent residue (%) pH 6.5: 20 mM phosphate buffer (pH 6.5); for Compound's percent residue (%) pH 1.2: hydrochloric acid solution (pH 1.2)
Protocol: Inventive Compounds (I) were tested for their stability in solutions simulating the gastric and small intestine's digestive fluids identified below.
The percent residues of Inventive Compounds (I) in a hydrochloric acid solution (pH 1.2) and 20 mM phosphate buffer (pH 6.5) were measured in accordance with the following test method.
A test compound was dissolved in a hydrochloric acid solution (pH 1.2) containing hydrochloric acid and sodium chloride or a 20 mM phosphate buffer (pH 6.5) containing disodium hydrogenphosphate, sodium dihydrogenphosphate and sodium chloride to prepare a solution with a concentration of about 50 μg/mL (near the solubility if undissolved). The solution was incubated at 37° C. for an hour and the compound's concentration before and after the incubation was quantified by high-performance liquid chromatography to calculate the percent residue of the compound.

[2] = Test 4: percent generation of Compound (IV) in human small intestine S9; format: in vitro ADME; settings: 3 μM, 1 mg protein/mL, 37° C. x 1 hr
Protocol: A test to determine the percent generation of Compound (IV) in human intestine S9 was conducted for Inventive Compounds (I) in accordance with the following method.
Inventive Compounds were incubated (37° C.×1 hr) in a 0.1 M phosphate buffer (pH 7.4) together with a human intestine S9 fraction (Xenotech, LLC/CP710571/Lot, 710571) in the presence of Mg^2+ (5 mM), Ca^2+ (5 mM) and Zn^2+ (0.1 mM). The final concentrations of each Inventive Compound and the small intestine S9 protein were adjusted to 3 μM and 1 mg protein/mL, respectively. To the incubated reaction mixture, 3 volumes of DMSO was added, followed by stirring and centrifugation at 3000 rpm (4° C.×10 min). The resulting supernatant was subjected to analysis by a liquid chromatography-tandem mass spectrometry (LC-MS/MS) system. The lower quantitation limit was 0.3 μM for both Inventive Compounds (I) and Compound (IV).
The LC-MS/MS system used in the measurement was equipped with Waters XBridge Amide (3.5 μm, 50 mm×4.6 mm I.D.), Waters Atlantis T3 (3 μm, 50 mm×4.6 mm I.D.), or Shimadzu Shim-pack XR-ODS (2.2 μm, 30 mm×3.0 mm I.D.) as a separation column. The mobile phase was a 0.1% formic acid/acetonitrile solution or a 0.1% formic acid/methanol solution (flow rate: 0.7-1.3 mL/min) and the analyte was eluted in a linear gradient mode. MS/MS detection of Inventive Compounds (I) and Compound (IV) was performed using an API4000 or Triple quad 5500 system with TurbolonSpray interface (both being products of AB SCIEX) in either a positive or negative ion detection mode. The percent generation of Compound (IV) in human small intestine S9 is shown in the following Table 6 with respect to Inventive Compounds.

Compound's percent residue (%) pH 6.5 [1] [%] | Compound's percent residue (%) pH 1.2 [1] [%] | Percent generation (%) of Compound IV in human small intestine S9 [2] [%] | Structure (SMILES)
97 | 99 | – | Cl.N[C@]1(C(=O)O)[C@H]2[C@@H](C[C@@H]1F)[C@@H]2C(=O)OC1OC(=O)c2ccccc21 (stereo partly drawn) [Ex. A-17, (1S,2S,3S,5R,6S)-2-amino-3-fluorobicyclo[3.1.0]hexane-2,6-dicarboxylic acid 6-(3-phthalidyl) ester hydrochloride]
97 | 100 | – | CC(OC(=O)OC1CCCCC1)OC(=O)[C@H]1[C@@H]2C[C@H](F)[C@@](N)(C(=O)O)[C@@H]21 (stereo partly drawn) [Ex. A-10, (1S,2S,3S,5R,6S)-2-amino-6-((1-(((cyclohexyloxy)carbonyl)oxy)ethoxy)carbonyl)-3-fluorobicyclo[3.1.0]hexane-2-carboxylic acid]
100 | 100 | – | CC(OC(=O)O[C@@H]1C[C@H](C)CC[C@H]1C(C)C)OC(=O)[C@H]1[C@@H]2C[C@H](F)[C@@](N)(C(=O)O)[C@@H]21 (stereo partly drawn) [Ex. A-3, (1S,2S,3S,5R,6S)-2-amino-3-fluoro-6-((1-(((((1R,2S,5R)-2-isopropyl-5-methylcyclohexyl)oxy)carbonyl)oxy)ethoxy)carbonyl)bicyclo[3.1.0]hexane-2-carboxylic acid]
97 | 95 | – | CC(OC(=O)OC12CC3CC(CC(C3)C1)C2)OC(=O)[C@H]1[C@@H]2C[C@H](F)[C@@](N)(C(=O)O)[C@@H]21 (stereo partly drawn) [Ex. A-14, (1S,2S,3S,5R,6S)-6-((1-(((adamantan-1-yloxy)carbonyl)oxy)ethoxy)carbonyl)-2-amino-3-fluorobicyclo[3.1.0]hexane-2-carboxylic acid]
98 | 99 | – | CC(C)[C@@H]1CC[C@@H](C)C[C@H]1OC(=O)OCOC(=O)[C@H]1[C@@H]2C[C@H](F)[C@@](N)(C(=O)O)[C@@H]21 [Ex. A-4, (1S,2S,3S,5R,6S)-2-amino-3-fluoro-6-(((((((1R,2S,5R)-2-isopropyl-5-methylcyclohexyl)oxy)carbonyl)oxy)methoxy)carbonyl)bicyclo[3.1.0]hexane-2-carboxylic acid]
101 | 101 | <10 | CC[C@H](C)[C@H](N)C(=O)N[C@]1(C(=O)O)[C@H]2[C@@H](C[C@@H]1F)[C@@H]2C(=O)O.Cl [Ex. D-6, (1S,2S,3S,5R,6S)-2-((2S,3S)-2-amino-3-methylpentanamide)-3-fluorobicyclo[3.1.0]hexane-2,6-dicarboxylic acid hydrochloride]
101 | 100 | – | CC(C)COC(C)OC(=O)[C@H]1[C@@H]2C[C@H](F)[C@@](N)(C(=O)O)[C@@H]21.Cl (stereo partly drawn) [Ex. A-8, (1S,2S,3S,5R,6S)-2-amino-3-fluoro-6-((1-(isobutyloxy)ethoxy)carbonyl)bicyclo[3.1.0]hexane-2-carboxylic acid hydrochloride]
101 | 102 | – | CC(C)OC(=O)OC(C)OC(=O)[C@H]1[C@@H]2C[C@H](F)[C@@](N)(C(=O)O)[C@@H]21.O=C(O)C(F)(F)F (stereo partly drawn) [Ex. A-15, (1S,2S,3S,5R,6S)-2-amino-3-fluoro-6-((1-((isopropyloxycarbonyl)oxy)ethoxy)carbonyl)bicyclo[3.1.0]hexane-2-carboxylic acid trifluoroacetate]
– | – | <10 | Cl.N[C@@H](Cc1ccccc1)C(=O)N[C@]1(C(=O)O)[C@H]2[C@@H](C[C@@H]1F)[C@@H]2C(=O)O [Ex. D-9, (1S,2S,3S,5R,6S)-2-((S)-2-amino-3-phenylpropanamide)-3-fluorobicyclo[3.1.0]hexane-2,6-dicarboxylic acid hydrochloride]
93 | 93 | – | N[C@]1(C(=O)O)[C@H]2[C@@H](C[C@@H]1F)[C@@H]2C(=O)OCOC(=O)OC12CC3CC(CC(C3)C1)C2 [Ex. A-13, (1S,2S,3S,5R,6S)-6-(((((adamantan-1-yloxy)carbonyl)oxy)methoxy)carbonyl)-2-amino-3-fluorobicyclo[3.1.0]hexane-2-carboxylic acid]
101 | 101 | – | CC(OC(=O)[C@H]1[C@@H]2C[C@H](F)[C@@](N)(C(=O)O)[C@@H]21)OC(=O)C12CC3CC(CC(C3)C1)C2 (stereo partly drawn) [Ex. A-2, (1S,2S,3S,5R,6S)-6-(1-((adamantane-1-carbonyl)oxy)ethoxy)carbonyl-2-amino-3-fluorobicyclo[3.1.0]hexane-2-carboxylic acid]
– | – | <10 | CSCC[C@@H](N)C(=O)N[C@]1(C(=O)O)[C@H]2[C@@H](C[C@@H]1F)[C@@H]2C(=O)O.Cl [Ex. D-11, (1S,2S,3S,5R,6S)-2-((R)-2-amino-4-(methylthio)butanamide)-3-fluorobicyclo[3.1.0]hexane-2,6-dicarboxylic acid hydrochloride]
103 | 100 | 17.8 | C[C@H](N)C(=O)N[C@]1(C(=O)O)[C@H]2[C@@H](C[C@@H]1F)[C@@H]2C(=O)O.Cl [Ex. D-2, (1S,2S,3S,5R,6S)-2-((S)-2-aminopropanamide)-3-fluorobicyclo[3.1.0]hexane-2,6-dicarboxylic acid hydrochloride]
100 | 101 | <10 | CCC[C@H](N)C(=O)N[C@]1(C(=O)O)[C@H]2[C@@H](C[C@@H]1F)[C@@H]2C(=O)O.Cl [Ex. D-4, (1S,2S,3S,5R,6S)-2-((S)-2-amino-4-methylbutanamide)-3-fluorobicyclo[3.1.0]hexane-2,6-dicarboxylic acid hydrochloride]
98 | 99 | – | Cc1oc(=O)oc1COC(=O)[C@H]1[C@@H]2C[C@H](F)[C@@](N)(C(=O)O)[C@@H]21 [Ex. A-16, (1S,2S,3S,5R,6S)-2-amino-3-fluoro-6-(((5-methyl-2-oxo-1,3-dioxol-4-yl)methoxy)carbonyl)bicyclo[3.1.0]hexane-2-carboxylic acid]
99 | 100 | – | CC(C)(C)C(=O)OCOC(=O)[C@H]1[C@@H]2C[C@H](F)[C@@](N)(C(=O)O)[C@@H]21 [Ex. A-7, (1S,2S,3S,5R,6S)-2-amino-3-fluoro-6-(((pivaloyloxy)methoxy)carbonyl)bicyclo[3.1.0]hexane-2-carboxylic acid]
– | – | 25.9 | Cl.NCCCC[C@H](N)C(=O)N[C@]1(C(=O)O)[C@H]2[C@@H](C[C@@H]1F)[C@@H]2C(=O)O [Ex. D-5, (1S,2S,3S,5R,6S)-2-((S)-2,6-diaminohexanamide)-3-fluorobicyclo[3.1.0]hexane-2,6-dicarboxylic acid hydrochloride]
99 | 100 | – | N[C@]1(C(=O)O)[C@H]2[C@@H](C[C@@H]1F)[C@@H]2C(=O)OCOC(=O)C12CC3CC(CC(C3)C1)C2 [Ex. A-1, (1S,2S,3S,5R,6S)-6-(((adamantane-1-carbonyl)oxy)methoxy)carbonyl-2-amino-3-fluorobicyclo[3.1.0]hexane-2-carboxylic acid]

Structure (SMILES) | Compound's percent residue (%) pH 6.5 [1] [%] | Compound's percent residue (%) pH 1.2 [1] [%] | Percent generation (%) of Compound IV in human small intestine S9 [2] [%]
C[C@H](N)C(=O)N[C@@H](C)C(=O)N[C@]1(C(=O)O)[C@H]2[C@@H](C[C@@H]1F)[C@@H]2C(=O)O.Cl [Ex. D-8, (1S,2S,3S,5R,6S)-2-((S)-2-((S)-2-aminopropanamide)propanamide)-3-fluorobicyclo[3.1.0]hexane-2,6-dicarboxylic acid hydrochloride] | – | – | 11.7
Cl.O=C(O)[C@H]1[C@@H]2C[C@H](F)[C@@](NC(=O)[C@@H]3CCCN3)(C(=O)O)[C@@H]21 [Ex. D-10, (1S,2S,3S,5R,6S)-3-fluoro-2-((S)-pyrrolidine-2-(carboxyamide))bicyclo[3.1.0]hexane-2,6-dicarboxylic acid hydrochloride] | – | – | <10
